Positions of bridges follow the written chain, without caps; N, C: chain ends. Non-standard residues stand in square brackets, D forms with d. Residues, ends and D or L forms follow the SMILES beside them. *: point of attachment. Phe(4-CONH2) = NC(=O)c1ccc(C[C@H](N)C(=O)O)cc1; Phe(4-COOH) = N[C@@H](Cc1ccc(C(=O)O)cc1)C(=O)O; Bip = N[C@@H](Cc1ccc(-c2ccccc2)cc1)C(=O)O; dPro(4S-NH2) = N[C@@H]1CN[C@@H](C(=O)O)C1; Phe(2-Cl) = N[C@@H](Cc1ccccc1Cl)C(=O)O; Phe(3-Me) = Cc1cccc(C[C@H](N)C(=O)O)c1; Phe(2-Me) = Cc1ccccc1C[C@H](N)C(=O)O; Val(3-OH) = CC(C)(O)[C@H](N)C(=O)O; NMeF = CN[C@@H](Cc1ccccc1)C(=O)O; 4Pal = N[C@@H](Cc1ccncc1)C(=O)O; Cha = N[C@@H](CC1CCCCC1)C(=O)O; Carboxymethyl = O=C(O)C*; NMeA = CN[C@@H](C)C(=O)O; Dab = NCC[C@H](N)C(=O)O; Dap = NC[C@H](N)C(=O)O; Sar = CNCC(=O)O

T1 sequence (Q15116 25-288): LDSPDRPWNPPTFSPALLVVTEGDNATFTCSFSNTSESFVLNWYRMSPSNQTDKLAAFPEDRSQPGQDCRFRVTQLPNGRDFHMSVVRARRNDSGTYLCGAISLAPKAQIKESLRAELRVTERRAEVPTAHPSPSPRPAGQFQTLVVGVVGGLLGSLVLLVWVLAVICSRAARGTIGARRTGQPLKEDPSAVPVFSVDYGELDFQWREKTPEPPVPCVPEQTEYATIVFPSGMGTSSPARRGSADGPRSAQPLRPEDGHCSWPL

The assay concerns the target T1, human PD-1 (Jurkat-PD-1 cells) / PE-labeled human PD-L1-Ig (Homo sapiens, UniProt Q15116).
T1 construct: expressed in transfected cells; host or cells: Jurkat cell line over-expressing human PD-1
The assay can be described thus: Jurkat-PD-1 Cell Binding High-Content Screening Assay (CBA); Jurkat hPD1-PDL1 assay. Particulars: Jurkat cell line over-expressing human PD-1; PE-labeled PD-L1-Ig 20 nM final; compound incubated 2 hours at 37° C.; read-out: Jurkat HPD1-PDL1 IC50. The procedure, abridged:
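Compound was added to Jurkat-PD-1 cells in DMEM plus 10% fetal calf serum and incubated 2 hours at 37° C. Binding of phycoerythrin-conjugated PD-L1-Ig (20 nM final) to the cells was imaged.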
Broadly, the IC50 is the concentration at which inhibition is half-maximal. Turning to `CC(C)C[C@@H]1NC(=O)[C@H](CCCNC(=N)N)NC(=O)[C@H](Cc2ccccc2)N(C)C(=O)[C@H](C)N(C)C(=O)[C@H](CCCNC(=N)N)NC(=O)[C@H](Cc2ccc(-c3ccccc3)cc2)NC(=O)[C@H](C(C)C)NC(=O)[C@H](Cc2c[nH]c3ccccc23)NC(=O)[C@H](CC(=O)O)NC(=O)[C@H](Cc2ccc(O)cc2)NC(=O)[C@H](Cc2ccccc2)NC(=O)CSC[C@@H](C(=O)N[C@H](C(N)=O)C(C)C)NC(=O)[C@H](CO)NC(=O)[C@H](C(C)C)NC1=O` [Example 1167] ({CH2CO}-FYDWV[Bip]R[NMeA][NMeF]RLVSCV-NH2; thioether N-14), the IC50 worked out at 0.91 µM.

Regarding `CC(C)C[C@@H]1NC(=O)[C@H](Cc2c[nH]c3ccccc23)NC(=O)[C@H](CC(=O)O)NC(=O)[C@H](Cc2ccc(O)cc2)NC(=O)[C@H](Cc2ccccc2)NC(=O)CSC[C@@H](C(=O)N[C@@H](CN)C(N)=O)NC(=O)[C@H](CO)NC(=O)[C@H](C(C)C)NC(=O)[C@H](CC(C)C)NC(=O)[C@H](CC(N)=O)NC(=O)CN(C)C(=O)[C@H](C)N(C)C(=O)[C@H](C(C)C)NC(=O)[C@H](Cc2ccc(-c3ccccc3)cc2)NC1=O` [Example 1168] ({CH2CO}-FYDWL[Bip]V[NMeA][Sar]NLVSC[Dap]-NH2; thioether N-14), the IC50 stood at 0.93 µM.

With `CC(C)C[C@@H]1NC(=O)[C@H](Cc2ccccc2Cl)NC(=O)[C@H](CC(=O)O)NC(=O)[C@H](Cc2ccc(O)cc2)NC(=O)[C@H](Cc2ccccc2)NC(=O)CSC[C@@H](C(=O)N[C@@H](C)C(N)=O)NC(=O)[C@H](CO)NC(=O)[C@H](C(C)C)NC(=O)[C@H](CC(C)C)NC(=O)[C@H](CC(N)=O)NC(=O)CN(C)C(=O)[C@H](C)N(C)C(=O)[C@H](C(C)C)NC(=O)[C@H](Cc2ccc(-c3ccccc3)cc2)NC1=O` [Example 1170] ({CH2CO}-FYD[Phe(2-Cl)]L[Bip]V[NMeA][Sar]NLVSCA-NH2; thioether N-14), the IC50 was 0.94 µM.

With `CC(C)C[C@@H]1NC(=O)[C@H](Cc2c[nH]c3ccccc23)NC(=O)[C@H](CC(=O)O)NC(=O)[C@H](Cc2ccc(O)cc2)NC(=O)[C@H](Cc2ccccc2)NC(=O)CSC[C@@H](C(=O)N[C@@H](C)C(N)=O)NC(=O)[C@H]([C@@H](C)O)NC(=O)[C@H](CCCNC(=N)N)NC(=O)[C@H](CC(C)C)NC(=O)[C@H](CC(N)=O)NC(=O)[C@H]2CCCN2C(=O)[C@H](C)N(C)C(=O)[C@H](C(C)C)NC(=O)[C@H](Cc2ccc(-c3ccccc3)cc2)NC1=O` [Example 1171] ({CH2CO}-FYDWL[Bip]V[NMeA][dP]NLRTCA-NH2; thioether N-14), the IC50 stood at 0.94 µM.

On to `Cc1ccccc1C[C@@H]1NC(=O)[C@H](CC(=O)O)NC(=O)[C@H](Cc2ccc(O)cc2)NC(=O)[C@H](Cc2ccccc2)NC(=O)CSC[C@@H](C(=O)N[C@@H](C)C(N)=O)NC(=O)[C@H](CO)NC(=O)[C@H](C(C)C)NC(=O)[C@H](CC(C)C)NC(=O)[C@H](CC(N)=O)NC(=O)CN(C)C(=O)[C@H](C)N(C)C(=O)[C@H](C(C)C)NC(=O)[C@H](Cc2ccc(-c3ccccc3)cc2)NC(=O)[C@H](CC(C)C)NC1=O` [Example 1172] ({CH2CO}-FYD[Phe(2-Me)]L[Bip]V[NMeA][Sar]NLVSCA-NH2; thioether N-14), for which the IC50 is 0.95 µM.

Turning to `CC(C)C[C@@H]1NC(=O)[C@H](Cc2c[nH]c3ccccc23)NC(=O)[C@H](CC(=O)O)NC(=O)[C@H](Cc2ccc(O)cc2)NC(=O)[C@H](Cc2ccccc2)NC(=O)CSC[C@@H](C(=O)N[C@@H](CO)C(N)=O)NC(=O)[C@H](CO)NC(=O)[C@H](C(C)C)NC(=O)[C@H](CC(C)C)NC(=O)[C@H](CC(N)=O)NC(=O)CN(C)C(=O)[C@H](C)N(C)C(=O)[C@H](C(C)C)NC(=O)[C@H](Cc2ccc(-c3ccccc3)cc2)NC1=O` [Example 1173] ({CH2CO}-FYDWL[Bip]V[NMeA][Sar]NLVSCS-NH2; thioether N-14), the IC50 amounted to 0.95 µM.

As for `CC(C)C[C@@H]1NC(=O)[C@H](Cc2c[nH]c3ccccc23)NC(=O)[C@H](CC(=O)O)NC(=O)[C@H](Cc2ccc(O)cc2)NC(=O)[C@H](Cc2ccc(C(N)=O)cc2)NC(=O)CSC[C@@H](C(=O)NCC(N)=O)NC(=O)[C@H](CO)NC(=O)[C@H](C(C)C)NC(=O)[C@H](CC(C)C)NC(=O)[C@H](CC(N)=O)NC(=O)CN(C)C(=O)[C@H](C)N(C)C(=O)[C@H](C(C)C)NC(=O)[C@H](Cc2ccc(-c3ccccc3)cc2)NC1=O` [Example 1174] ({CH2CO}-[Phe(4-CONH2)]YDWL[Bip]V[NMeA][Sar]NLVSCG-NH2; thioether N-14), the half-inhibitory concentration (IC50) was determined as 0.97 µM.

On to `CC(C)C[C@@H]1NC(=O)[C@H](Cc2c[nH]c3ccccc23)NC(=O)[C@H](CC(=O)O)NC(=O)[C@H](Cc2ccc(O)cc2)NC(=O)[C@H](Cc2ccccc2)NC(=O)CSC[C@@H](C(=O)N[C@@H](C)C(N)=O)NC(=O)[C@H](CO)NC(=O)[C@H](C(C)C)NC(=O)[C@H](CC(C)C)NC(=O)[C@H](CC(N)=O)NC(=O)[C@H]2C[C@H](N)CN2C(=O)[C@H]2CCCN2C(=O)[C@H](C(C)C)NC(=O)[C@H](Cc2ccc(-c3ccccc3)cc2)NC1=O` [Example 1175] ({CH2CO}-FYDWL[Bip]V[dP][dPro(4S-NH2)]NLVSCA-NH2; thioether N-14), for which the IC50 worked out at 0.5 µM.

With `CC(C)C[C@@H]1NC(=O)[C@H](Cc2c[nH]c3ccccc23)NC(=O)[C@H](CC(=O)O)NC(=O)[C@H](Cc2ccc(O)cc2)NC(=O)[C@H](Cc2ccccc2)NC(=O)CSC[C@@H](C(=O)N[C@@H](C)C(N)=O)NC(=O)[C@H](CO)NC(=O)[C@H](C(C)C)NC(=O)[C@H](CC(C)C)NC(=O)[C@H](CCC(=O)O)NC(=O)[C@H]2CCCN2C(=O)[C@H](C)N(C)C(=O)[C@H](CCC(=O)O)NC(=O)[C@H](Cc2ccc(-c3ccccc3)cc2)NC1=O` [Example 1177] ({CH2CO}-FYDWL[Bip]E[NMeA][dP]ELVSCA-NH2; thioether N-14), the IC50 was found to be 0.24 µM.

With `Cc1cccc(C[C@@H]2NC(=O)[C@H](CC(=O)O)NC(=O)[C@H](Cc3ccc(OCC(=O)O)cc3)NC(=O)[C@H](Cc3ccncc3)NC(=O)CSC[C@@H](C(=O)N[C@@H](CCN)C(N)=O)NC(=O)[C@H](CO)NC(=O)[C@H](C(C)(C)O)NC(=O)[C@H](CC3CCCCC3)NC(=O)[C@H](CCN)NC(=O)[C@H]3CCCN3C(=O)[C@H](C)N(C)C(=O)[C@H](Cc3ccc(OCC(=O)O)cc3)NC(=O)[C@H](Cc3ccc(-c4ccccc4)cc3)NC(=O)[C@H](Cc3ccc(C(=O)O)cc3)NC2=O)c1` [Example 1178] ({CH2CO}-[4Pal]Y(Carboxymethyl)D[Phe(3-Me)][Phe(4-COOH)][Bip]Y(Carboxymethyl)[NMeA][dP][Dab][Cha][Val(3-OH)]SC[Dab]-NH2; thioether N-14), the IC50 is 0.07 µM.

Regarding `Cc1cccc(C[C@@H]2NC(=O)[C@H](CC(=O)O)NC(=O)[C@H](Cc3ccc(OCC(=O)O)cc3)NC(=O)[C@H](Cc3ccncc3)NC(=O)CSC[C@@H](C(=O)N[C@@H](CCN)C(N)=O)NC(=O)[C@H](CO)NC(=O)[C@H](C(C)(C)O)NC(=O)[C@H](CC3CCCCC3)NC(=O)[C@H](CCN)NC(=O)[C@H]3CCCN3C(=O)[C@H](C)N(C)C(=O)[C@H](Cc3ccc(OCC(=O)O)cc3)NC(=O)[C@H](Cc3ccc(-c4ccccc4)cc3)NC(=O)[C@H](Cc3ccc(OCC(=O)O)cc3)NC2=O)c1` [Example 1179] ({CH2CO}-[4Pal]Y(Carboxymethyl)D[Phe(3-Me)]Y(Carboxymethyl)[Bip]Y(Carboxymethyl)[NMeA][dP][Dab][Cha][Val(3-OH)]SC[Dab]-NH2; thioether N-14), the IC50 is 0.08 µM.

(Values after patent publication US20240360178A1, “MACROCYCLIC IMMUNOMODULATORS” (Bristol-Myers Squibb Company, priority 2021, published 2024).)
